Test systems include KM12; SR; SK-MEL-2; HCT-15; MCF7; CAKI-1; IGROV-1; COLO 205; UACC-257; HCT-116; Hs-578T; T47D; SK-MEL-5; PC-3; RXF 393; CCRF-CEM; BT-549; UO-31; HL-60; SW-620.
Holding throughout (assay): NCI tumour cell line growth inhibition, 48 h

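48-hour exposure; five concentrations; linearly interpolated endpoints. GI50: concentration for 50% inhibition of growth.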 Active and inactive are the calls of the source. No stated cut-off is given here; in the data, active = GI50 up to about 1.1 µM and inactive = higher.

As to `O=C(Cn1c(C(=O)c2ccccc2)nc2ccccc21)c1ccccc1`, the GI50 is > 100 µM (inactive) in the experiment with KM12; > 100 µM (inactive) in the experiment with SR; > 100 µM (inactive) in the experiment with SK-MEL-2; over 100 µM in the experiment on HCT-15; > 100 µM (inactive) in the experiment with MCF7; > 100 µM (inactive) in the experiment with CAKI-1. For the same compound, the GI50 in the experiment with IGROV-1 was > 31.6 µM (inactive); in the experiment on COLO 205, > 100 µM (inactive); with UACC-257 it was > 100 µM (inactive); in the experiment with HCT-116, > 100 µM (inactive); in the experiment with Hs-578T, 30.5 µM (inactive); with T47D, > 100 µM (inactive). For the same compound, the GI50 with SK-MEL-5 is > 100 µM (inactive); in the experiment with PC-3, > 72.4 µM (inactive); with RXF 393, > 100 µM (inactive); in the experiment with CCRF-CEM it was > 100 µM (inactive); in the experiment with BT-549 it was > 100 µM (inactive); with UO-31, > 56.1 µM (inactive). In addition, the GI50 in the experiment with HL-60 is 7.1 µM (inactive); with SW-620, 4.85 µM (inactive).
Turning to `COc1ccc(C(=O)NCCN(C)C)c2nc3ccccc3cc12`, the GI50 in the experiment on KM12 is 1.34 µM (inactive); with SR, 0.0551 µM (active); with SK-MEL-2, 3.01 µM (inactive); in the experiment with HCT-15, 1.35 µM; with MCF7, 0.401 µM (active); with CAKI-1, 0.241 µM (active). For the same compound, the GI50 in the experiment with IGROV-1 is 1.32 µM (inactive); in the experiment with COLO 205 it was 1.2 µM (inactive); with UACC-257, 1.58 µM (inactive); with HCT-116 it was 0.561 µM (active); with Hs-578T, 1.4 µM (inactive); in the experiment with T47D, 2.22 µM (inactive). Moreover, the GI50 is 1.23 µM (inactive) in the experiment on SK-MEL-5; 1.38 µM (inactive) in the experiment on PC-3; 2.15 µM (inactive) with RXF 393; 0.208 µM (active) with CCRF-CEM; 3.18 µM (inactive) with BT-549; 0.532 µM (active) with UO-31. For the same compound, the GI50 in the experiment with HL-60 is 0.11 µM (active); with SW-620 it was 0.383 µM (active).
Regarding `COC(=O)C(CCSC)NC(=O)Cc1ccc(C(=O)c2ccccc2)cc1` (stereo not given), the GI50 in the experiment on KM12 is 25.9 µM (inactive); in the experiment on SR, 31.3 µM (inactive); in the experiment on SK-MEL-2, 48.6 µM (inactive); in the experiment with HCT-15, 36.1 µM; in the experiment on MCF7 it was 47.3 µM (inactive); in the experiment with CAKI-1, 70.3 µM (inactive). In addition, the GI50 in the experiment on IGROV-1 is 64.3 µM (inactive); in the experiment on COLO 205 it was > 100 µM (inactive); in the experiment with UACC-257, > 100 µM (inactive); in the experiment on HCT-116, 39.7 µM (inactive); in the experiment with Hs-578T, 33.1 µM (inactive); in the experiment on T47D, 59.2 µM (inactive). Moreover, the GI50 was 32.5 µM (inactive) with SK-MEL-5; 56.8 µM (inactive) in the experiment with PC-3; > 100 µM (inactive) in the experiment on RXF 393; 42.5 µM (inactive) in the experiment on CCRF-CEM; 29 µM (inactive) in the experiment with BT-549; 53.7 µM (inactive) in the experiment with UO-31. The GI50 was 32.7 µM (inactive) in the experiment with HL-60 and 42.4 µM (inactive) with SW-620.
With `O=c1c(F)cn(Cc2c(Cl)cccc2Cl)c(=O)n1Cc1c(Cl)cccc1Cl`, the GI50 with KM12 was > 31.6 µM (inactive); with SR it was 19.4 µM (inactive); in the experiment on SK-MEL-2, > 31.6 µM (inactive); in the experiment on HCT-15, over 31.6 µM; in the experiment with MCF7, 24.5 µM (inactive); with CAKI-1, > 21.5 µM (inactive). Moreover, the GI50 is > 31.6 µM (inactive) in the experiment with IGROV-1; 19.9 µM (inactive) in the experiment on COLO 205; > 31.6 µM (inactive) in the experiment with UACC-257; 23.8 µM (inactive) in the experiment with HCT-116; > 31.6 µM (inactive) in the experiment with Hs-578T; 20.7 µM (inactive) in the experiment on T47D. Moreover, the GI50 in the experiment on SK-MEL-5 was 18.1 µM (inactive); in the experiment on PC-3, 17.3 µM (inactive); with RXF 393 it was 19.7 µM (inactive); in the experiment with CCRF-CEM it was 27 µM (inactive); with BT-549, > 31.6 µM (inactive); in the experiment with UO-31, 18.1 µM (inactive). The GI50 with HL-60 was 20 µM (inactive); with SW-620 it was > 31.6 µM (inactive).
Turning to `CCCCCCCCCCCC(=O)NCc1ccc(OC(=O)CCCCCCCCCCC)c(OC)c1`, the GI50 in the experiment on KM12 was 24.3 µM (inactive); with SR it was 11.1 µM (inactive); with SK-MEL-2 it was > 82.8 µM (inactive); with HCT-15, over 100 µM; with MCF7, 35.3 µM (inactive); in the experiment with CAKI-1 it was > 100 µM (inactive). In addition, the GI50 in the experiment on IGROV-1 is 4.21 µM (inactive); in the experiment with COLO 205, 35.6 µM (inactive); in the experiment with UACC-257 it was > 100 µM (inactive); with HCT-116, 65.2 µM (inactive); with Hs-578T, 56.4 µM (inactive); in the experiment with T47D, 32.2 µM (inactive). Also, the GI50 in the experiment with SK-MEL-5 was > 63 µM (inactive); with PC-3 it was 15.1 µM (inactive); with RXF 393 it was > 100 µM (inactive); in the experiment with CCRF-CEM it was 1.34 µM (inactive); in the experiment with BT-549, > 100 µM (inactive); in the experiment with UO-31, > 70 µM (inactive). Further, the GI50 was 6.07 µM (inactive) in the experiment on HL-60 and > 100 µM (inactive) with SW-620.
On to `O=c1nc(N2CCN(c3ccccc3)CC2)ccn1C1OC(CO)C(O)C1O` (stereo not given), for which the GI50 in the experiment with KM12 is 38.1 µM (inactive); with SR it was 28.4 µM (inactive); with SK-MEL-2, > 100 µM (inactive); with HCT-15, over 100 µM; in the experiment with MCF7, 54.6 µM (inactive); with CAKI-1, > 100 µM (inactive). The GI50 in the experiment on IGROV-1 is 60.5 µM (inactive); in the experiment on COLO 205 it was 97.3 µM (inactive); in the experiment on UACC-257, 45.1 µM (inactive); with HCT-116 it was 56 µM (inactive); in the experiment with Hs-578T it was > 100 µM (inactive); with T47D it was 22.5 µM (inactive). Besides, the GI50 with SK-MEL-5 was 42.6 µM (inactive); with PC-3 it was 74.5 µM (inactive); in the experiment on RXF 393, > 100 µM (inactive); in the experiment with CCRF-CEM, 35.6 µM (inactive); in the experiment on BT-549, 53.2 µM (inactive); with UO-31, > 100 µM (inactive). Also, the GI50 in the experiment with HL-60 was 39.9 µM (inactive); in the experiment on SW-620 it was 82 µM (inactive).
On to `C1CSC2=C(S1)SC1=C(S2)SC(=C2SC3=C(SC4=C(SCCS4)S3)S2)S1`, for which the GI50 is > 100 µM (inactive) in the experiment on KM12; 87.7 µM (inactive) in the experiment with SR; 74.1 µM (inactive) with SK-MEL-2; over 100 µM in the experiment on HCT-15; > 100 µM (inactive) in the experiment on MCF7; > 100 µM (inactive) in the experiment with CAKI-1. Also, the GI50 in the experiment with IGROV-1, in the experiment on COLO 205, with UACC-257, in the experiment on HCT-116, in the experiment on Hs-578T and with T47D was > 100 µM (inactive) throughout. Besides, the GI50 in the experiment on SK-MEL-5, in the experiment with PC-3, in the experiment on RXF 393, with CCRF-CEM, with BT-549 and in the experiment on UO-31 was > 100 µM (inactive) in each case. For the same compound, the GI50 is 23.9 µM (inactive) in the experiment with HL-60 and > 100 µM (inactive) with SW-620.
As for `Cc1cc(N(CCC#N)CCC#N)ccc1/C=C(\NC(=O)/C=C/c1ccccc1)C(=O)NN`, the GI50 with KM12 is > 100 µM (inactive); with SR, > 100 µM (inactive); in the experiment on SK-MEL-2, > 61.7 µM (inactive); with HCT-15, over 100 µM; in the experiment with MCF7, 95.1 µM (inactive); in the experiment on CAKI-1 it was > 100 µM (inactive). The GI50 is > 75.3 µM (inactive) in the experiment with IGROV-1; > 100 µM (inactive) in the experiment on COLO 205; > 100 µM (inactive) in the experiment with UACC-257; 99.1 µM (inactive) with HCT-116; 31.3 µM (inactive) in the experiment on Hs-578T; 55 µM (inactive) in the experiment with T47D. Further, the GI50 is > 79.6 µM (inactive) in the experiment with SK-MEL-5; > 100 µM (inactive) in the experiment on PC-3; > 57.3 µM (inactive) in the experiment on RXF 393; > 100 µM (inactive) with CCRF-CEM; 25.6 µM (inactive) in the experiment on BT-549; > 100 µM (inactive) with UO-31. Moreover, the GI50 with HL-60 and in the experiment with SW-620 was > 100 µM (inactive) in each case.
Regarding `COc1ccc2oc(S(=O)(=O)N3CC(CCl)c4ccc([N+](=O)[O-])cc43)cc2c1` (stereo not given), the GI50 is 0.0465 µM (active) in the experiment with KM12; 0.0521 µM (active) in the experiment on SR; 0.12 µM (active) in the experiment on SK-MEL-2; 0.0703 µM with HCT-15; 0.0401 µM (active) in the experiment with MCF7; 0.0388 µM (active) with CAKI-1. In addition, the GI50 with IGROV-1 was 0.0815 µM (active); with COLO 205, 0.105 µM (active); with UACC-257, 0.073 µM (active); in the experiment with HCT-116, 0.0908 µM (active); with Hs-578T, 0.0454 µM (active); in the experiment with T47D, 20.2 µM (inactive). The GI50 was 0.0752 µM (active) in the experiment on SK-MEL-5; 0.116 µM (active) in the experiment on PC-3; 0.0345 µM (active) in the experiment on RXF 393; 0.45 µM (active) in the experiment with CCRF-CEM; 0.351 µM (active) in the experiment on BT-549; 0.783 µM (active) in the experiment with UO-31. Also, the GI50 with HL-60 was 0.0579 µM (active); with SW-620 it was 0.0841 µM (active).
Take `CNc1cccnc1/C=N/N=C(/N)S`: the GI50 was 4.52 µM (inactive) with KM12; > 2.84 µM (inactive) with SR; 9.89 µM (inactive) in the experiment with SK-MEL-2; 2.78 µM with HCT-15; 0.471 µM (active) with MCF7; 3.48 µM (inactive) in the experiment on CAKI-1. For the same compound, the GI50 is > 5.55 µM (inactive) with IGROV-1; 2.13 µM (inactive) with COLO 205; > 10 µM (inactive) with UACC-257; 1.22 µM (inactive) in the experiment on HCT-116; > 10 µM (inactive) in the experiment on Hs-578T; 2.7 µM (inactive) in the experiment with T47D. The GI50 in the experiment on SK-MEL-5 was 3.2 µM (inactive); in the experiment with PC-3, 1.69 µM (inactive); in the experiment with RXF 393 it was 1.15 µM (inactive); in the experiment with CCRF-CEM it was 0.363 µM (active); with BT-549, 1.71 µM (inactive); in the experiment with UO-31, 1.78 µM (inactive). In addition, the GI50 is 0.564 µM (active) in the experiment on HL-60 and 3.05 µM (inactive) in the experiment on SW-620.

Values taken from ChEMBL document CHEMBL1201862, “PubChem BioAssay data set” (2004).
